Measured values taken from patent US20230000853A1, “PHARMACEUTICAL COMPOSITION CONTAINING NITROXOLINE, NITROXOLINE TABLET, PREPARATION METHOD THEREFOR AND USE THEREOF” (JIANGSU YAHONG MEDITECH CO., LTD., priority 2019, published 2023).

Key:
[1] = Particle size determination by Malvern laser particle size analyzer, wet method; format: physicochemical; details: pulverized raw material; dispersant 0.5% aqueous Tween 80
Description: The initial particle size D90 of the raw material nitroxoline or nitroxoline lysine salt was more than 100 μm. The raw material was pulverized with the mechanical mill to obtain the raw material having the particle size I, II, III or V in the following Table 1. The raw material was pulverized with the jet mill to obtain the raw material having the particle size IV in the following Table 1.
Determination was carried out on the Malvern laser particle size analyzer MS2000 by wet method according to the operation requirements of the instrument, the dispersant was an aqueous Tween 80 solution, and the mass fraction of Tween 80 in the aqueous solution was 0.5%.

[2] = low solubility and high permeability; cited from earlier work
[3] = molecular target: T1, silence information regulator 2-related enzyme SIRT1 (Homo sapiens, UniProt Q96EB6); details: vascular endothelial cells; cited from earlier work
T1 construct: host or cells: vascular endothelial cells
T1 sequence (Q96EB6 1-747): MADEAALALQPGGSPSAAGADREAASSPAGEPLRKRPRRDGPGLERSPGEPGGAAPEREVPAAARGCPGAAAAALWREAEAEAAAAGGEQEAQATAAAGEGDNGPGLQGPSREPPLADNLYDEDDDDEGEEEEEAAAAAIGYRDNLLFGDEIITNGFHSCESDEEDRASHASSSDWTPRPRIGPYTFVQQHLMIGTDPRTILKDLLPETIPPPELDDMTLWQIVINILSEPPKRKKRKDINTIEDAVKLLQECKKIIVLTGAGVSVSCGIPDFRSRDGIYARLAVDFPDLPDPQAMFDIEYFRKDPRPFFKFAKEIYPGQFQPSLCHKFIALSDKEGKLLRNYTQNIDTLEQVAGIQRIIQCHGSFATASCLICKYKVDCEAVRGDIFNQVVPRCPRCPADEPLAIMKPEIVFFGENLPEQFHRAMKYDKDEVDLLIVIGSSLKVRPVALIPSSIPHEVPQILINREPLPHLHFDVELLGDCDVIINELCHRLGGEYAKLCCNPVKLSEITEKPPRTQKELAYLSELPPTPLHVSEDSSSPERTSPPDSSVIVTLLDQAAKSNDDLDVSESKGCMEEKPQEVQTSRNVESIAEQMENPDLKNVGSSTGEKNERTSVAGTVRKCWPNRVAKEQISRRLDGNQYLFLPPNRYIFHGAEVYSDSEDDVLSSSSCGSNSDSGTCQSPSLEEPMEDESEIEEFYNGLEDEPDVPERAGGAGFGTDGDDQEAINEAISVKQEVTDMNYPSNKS

[4] = molecular target: T2, methionine aminopeptidase MetAP2 (Homo sapiens, UniProt P50579); details: vascular endothelial cells; cited from earlier work
T2 construct: host or cells: vascular endothelial cells

[5] = Solubility and dissolution of nitroxoline in aqueous media; format: physicochemical; details: 0.1 mol/L hydrochloric acid, water and phosphate buffer (pH 6.8) at 37° C.
Excerpt: In addition, the resulting nitroxoline tablets have uniform content, narrow variation range in hardness, and good fluidity and compressibility.

T2 sequence (P50579 whole entry): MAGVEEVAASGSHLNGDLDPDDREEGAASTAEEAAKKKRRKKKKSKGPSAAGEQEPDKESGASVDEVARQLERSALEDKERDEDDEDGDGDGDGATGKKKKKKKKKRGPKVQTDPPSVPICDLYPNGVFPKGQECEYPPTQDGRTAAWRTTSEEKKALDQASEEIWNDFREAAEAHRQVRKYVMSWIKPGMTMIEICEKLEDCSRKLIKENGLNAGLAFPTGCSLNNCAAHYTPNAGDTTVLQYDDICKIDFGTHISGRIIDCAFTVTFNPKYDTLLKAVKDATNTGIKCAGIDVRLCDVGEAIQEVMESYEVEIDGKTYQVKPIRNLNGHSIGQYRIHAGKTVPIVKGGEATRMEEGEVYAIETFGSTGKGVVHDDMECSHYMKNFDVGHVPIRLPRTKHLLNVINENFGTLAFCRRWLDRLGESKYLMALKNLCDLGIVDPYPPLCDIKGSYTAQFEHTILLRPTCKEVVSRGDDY

Structure (SMILES): O=[N+]([O-])c1ccc(O)c2ncccc12 [II (Nitroxoline), Nitroxoline]
- Particle size D10 [1]: 3.99 μm
- Particle size D50 [1]: 14.95 μm
- Particle size D90 [1]: 70.58 μm

Structure (SMILES): NCCCC[C@H](N)C(=O)O.O=[N+]([O-])c1ccc(O)c2ncccc12 [V (Nitroxoline lysine salt), Nitroxoline lysine salt]
- Particle size D10 [1]: 3.67 μm
- Particle size D50 [1]: 10.88 μm
- Particle size D90 [1]: 43.29 μm

Structure (SMILES): O=[N+]([O-])c1ccc(O)c2ncccc12 [III (Nitroxoline), Nitroxoline]
- Particle size D10 [1]: 3.44 μm
- Particle size D50 [1]: 11.02 μm
- Particle size D90 [1]: 42.55 μm

Structure (SMILES): O=[N+]([O-])c1ccc(O)c2ncccc12 [I (Nitroxoline), Nitroxoline]
- Particle size D10 [1]: 5.66 μm
- Particle size D50 [1]: 33.60 μm
- Particle size D90 [1]: 99.31 μm

Structure (SMILES): O=[N+]([O-])c1ccc(O)c2ncccc12 [nitroxoline, 5-nitro-8-hydroxyquinoline]
- BCS class [2]: BCS class II
- Inhibition of SIRT1 [3]: inhibit
- Inhibition of MetAP2 [4]: inhibit
- Solubility and dissolution [5]: low solubility and slow dissolution

Structure (SMILES): O=[N+]([O-])c1ccc(O)c2ncccc12 [IV (Nitroxoline), Nitroxoline]
- Particle size D10 [1]: 0.12 μm
- Particle size D50 [1]: 4.58 μm
- Particle size D90 [1]: 12.61 μm
